biological target: MGAT2 Human (Homo sapiens (Human), UniProt Q3SYC2); assay: MGAT2 Human IC50; format: biochemical
Sequence (Q3SYC2 whole entry): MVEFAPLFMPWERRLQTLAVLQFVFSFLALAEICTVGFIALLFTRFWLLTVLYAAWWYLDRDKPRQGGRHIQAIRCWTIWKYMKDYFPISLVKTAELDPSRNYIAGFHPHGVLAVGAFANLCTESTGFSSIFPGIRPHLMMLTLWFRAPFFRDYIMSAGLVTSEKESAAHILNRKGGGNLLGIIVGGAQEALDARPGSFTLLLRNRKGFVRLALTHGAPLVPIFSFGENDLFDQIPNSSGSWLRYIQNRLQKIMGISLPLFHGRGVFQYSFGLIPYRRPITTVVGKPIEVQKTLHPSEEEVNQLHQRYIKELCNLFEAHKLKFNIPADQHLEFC

Compound	IC50 [nM]
C[C@H](c1cccc(Cl)c1)N1CCc2ccc(S(=O)(=O)Nc3cc(C(C)(C)C)on3)cc2C1 [Example 1, (R)—N-(5-(tert-butyl)isoxazol-3-yl)-2-(1-(3-chlorophenyl)ethyl)-1,2,3,4-tetrahydroisoquinoline-7-sulfonamide]	9
C[C@H](c1cc(F)cc(F)c1F)N1CCc2ccc(S(=O)(=O)Nc3cc(C(C)(C)C)on3)cc2C1 [Example 2, (R)—N-(5-(tert-butyl)isoxazol-3-yl)-2-(1-(2,3,5-trifluorophenyl)ethyl)-1,2,3,4-tetrahydroisoquinoline-7-sulfonamide]	6
C[C@H](c1ccccc1)N1CCc2ccc(S(=O)(=O)Nc3cc(C(C)(C)C)on3)cc2C1 [Example 3, (R)—N-(5-(tert-butyl)isoxazol-3-yl)-2-(1-phenylethyl)-1,2,3,4-tetrahydroisoquinoline-7-sulfonamide]	9
CCSc1ncc([C@@H](C)N2CCc3ccc(S(=O)(=O)Nc4cc(C(C)(C)C)on4)cc3C2)cn1 [Example 4, (R)—N-(5-(tert-butyl)isoxazol-3-yl)-2-(1-(2-(ethylthio)pyrimidin-5-yl)ethyl)-1,2,3,4-tetrahydroisoquinoline-7-sulfonamide]	11
C[C@H](c1ccc(OCC(F)(F)F)nc1)N1CCc2ccc(S(=O)(=O)Nc3noc(-c4ccccc4)n3)cc2C1 [Example 6]	9.2
C[C@H](c1cnc(OCC(F)(F)F)nc1)N1CCc2ccc(S(=O)(=O)Nc3cc(C(C)(C)C)on3)cc2C1 [Example 12, (R)—N-(5-(tert-butyl)isoxazol-3-yl)-2-(1-(2-(2,2,2-trifluoroethoxy)pyrimidin-5-yl)ethyl)-1,2,3,4-tetrahydroisoquinoline-7-sulfonamide]	14
Cc1onc(NS(=O)(=O)c2ccc3c(c2)CN([C@H](C)c2ccc(OCC(F)(F)F)nc2)CC3)c1-c1cnn(C)c1 [Example 17, (R)—N-(5-methyl-4-(1-methyl-1H-pyrazol-4-yl)isoxazol-3-yl)-2-(1-(6-(2,2,2-trifluoroethoxy)pyridin-3-yl)ethyl)-1,2,3,4-tetrahydroisoquinoline-7-sulfonamide]	24
C[C@H](c1ccc(OCC(F)F)nc1)N1CCc2ccc(S(=O)(=O)Nc3cc(C(C)(C)C)on3)cc2C1 [Example 22]	6.4
C[C@H](c1ccc(OCC(F)F)nc1)N1CCc2ccc(S(=O)(=O)Nc3noc(C4CC4)n3)cc2C1 [Example 23, (R)-5-cyclopropyl-3-(2-(1-(6-(2,2-difluoroethoxy)pyridin-3-yl)ethyl)-1,2,3,4-tetrahydroisoquinoline-7-sulfonamido)-1,2,4-oxadiazol-2-ium 2,2,2-trifluoroacetate]	8.2
C[C@H](c1cnc(OCC(F)F)cn1)N1CCc2ccc(S(=O)(=O)Nc3noc(C4CC4)n3)cc2C1 [Example 24, (R)-5-cyclopropyl-3-(2-(1-(5-(2,2-difluoroethoxy)pyrazin-2-yl)ethyl)-1,2,3,4-tetrahydroisoquinoline-7-sulfonamido)-1,2,4-oxadiazol-2-ium 2,2,2-trifluoroacetate]	19.7
Cc1c(NS(=O)(=O)c2ccc3c(c2)CN([C@H](C)c2cnc(OCC(F)F)cn2)CC3)noc1C(C)(C)C [Example 25, 7-(N-(5-(tert-butyl)-4-methylisoxazol-3-yl)sulfamoyl)-2-((R)-1-(5-(2,2-difluoroethoxy)pyrazin-2-yl)ethyl)-1,2,3,4-tetrahydroisoquinolin-2-ium 2,2,2-trifluoroacetate]	4.6
C[C@H](c1ccc(OCC2CC(F)(F)C2)nc1)N1CCc2ccc(S(=O)(=O)Nc3noc(C4CC4)n3)cc2C1 [Example 26, (R)-5-cyclopropyl-3-(2-(1-(6-((3,3-difluorocyclobutyl)methoxy)pyridin-3-yl)ethyl)-1,2,3,4-tetrahydroisoquinoline-7-sulfonamido)-1,2,4-oxadiazol-2-ium 2,2,2-trifluoroacetate]	20
Cc1c(NS(=O)(=O)c2ccc3c(c2)CN([C@H](C)c2ccc(OCC4CC(F)(F)C4)nc2)CC3)noc1C(C)(C)C [Example 28, 7-(N-(5-(tert-butyl)-4-methylisoxazol-3-yl)sulfamoyl)-2-((R)-1-(6-((3,3-difluorocyclobutyl)methoxy)pyridin-3-yl)ethyl)-1,2,3,4-tetrahydroisoquinolin-2-ium 2,2,2-trifluoroacetate]	8.5
COCCOc1ccc(C(=O)N2CCc3ccc(S(=O)(=O)Nc4noc(C(C)(C)C)c4C)cc3C2)cn1 [Example 30, N-(5-(tert-butyl)-4-methylisoxazol-3-yl)-2-(6-(2-methoxyethoxy)nicotinoyl)-1,2,3,4-tetrahydroisoquinoline-7-sulfonamide]	31

Further lines, results first:

IC50 [nM]	Compound
4.5	Cc1c(NS(=O)(=O)c2ccc3c(c2)CN([C@H](C)c2ccc(OCC(F)(F)F)nc2)CC3)noc1C(C)(C)C [Example 5, (R)—N-(5-(tert-butyl)-4-methylisoxazol-3-yl)-2-(1-(6-(2,2,2-trifluoroethoxy)pyridin-3-yl)ethyl)-1,2,3,4-tetrahydroisoquinoline-7-sulfonamide]
8.1	CCc1noc(NS(=O)(=O)c2ccc3c(c2)CN([C@H](C)c2ccc(OCC(F)(F)F)nc2)CC3)n1 [Example 7]
13	CC(C)c1nc(NS(=O)(=O)c2ccc3c(c2)CN([C@H](C)c2ccc(OCC(F)(F)F)nc2)CC3)no1 [Example 8]
11	C[C@H](c1ccc(OCC(F)(F)F)nc1)N1CCc2ccc(S(=O)(=O)Nc3cc(C(C)(C)C)on3)cc2C1 [Example 9, (R)—N-(5-(tert-butyl)isoxazol-3-yl)-2-(1-(6-(2,2,2-trifluoroethoxy)pyridin-3-yl)ethyl)-1,2,3,4-tetrahydroisoquinoline-7-sulfonamide]
17	C[C@H](c1cnc(OCC(F)(F)F)nc1)N1CCc2ccc(S(=O)(=O)Nc3noc(C(C)(C)C)c3Br)cc2C1 [Example 10, (R)—N-(4-bromo-5-(tert-butyl)isoxazol-3-yl)-2-(1-(2-(2,2,2-trifluoroethoxy)pyrimidin-5-yl)ethyl)-1,2,3,4-tetrahydroisoquinoline-7-sulfonamide]
20	C[C@H](c1cnc(OCC(F)(F)F)nc1)N1CCc2ccc(S(=O)(=O)Nc3noc(C(C)(C)C)c3-c3cccc(F)c3)cc2C1 [Example 11, (R)—N-(5-(tert-butyl)-4-(3-fluorophenyl)isoxazol-3-yl)-2-(1-(2-(2,2,2-trifluoroethoxy)pyrimidin-5-yl)ethyl)-1,2,3,4-tetrahydroisoquinoline-7-sulfonamide]
16	C[C@H](c1ccc(OCC(F)(F)F)nc1)N1CCc2ccc(S(=O)(=O)Nc3noc(C(C)(C)C)c3Cl)cc2C1 [Example 13, (R)—N-(5-(tert-butyl)-4-chloroisoxazol-3-yl)-2-(1-(6-(2,2,2-trifluoroethoxy)pyridin-3-yl)ethyl)-1,2,3,4-tetrahydroisoquinoline-7-sulfonamide]
3.1	Cc1c(NS(=O)(=O)c2ccc3c(c2)CN([C@H](C)c2cnc(OCC(F)(F)F)cn2)CC3)noc1C(C)(C)C [Example 14, (R)—N-(5-(tert-butyl)-4-methylisoxazol-3-yl)-2-(1-(5-(2,2,2-trifluoroethoxy)pyrazin-2-yl)ethyl)-1,2,3,4-tetrahydroisoquinoline-7-sulfonamide]
11	Cc1c(NS(=O)(=O)c2ccc3c(c2)CN(Cc2ccc(OCC(F)(F)F)nc2)CC3)noc1C(C)(C)C [Example 15, N-(5-(tert-butyl)-4-methylisoxazol-3-yl)-2-((6-(2,2,2-trifluoroethoxy)pyridin-3-yl)methyl)-1,2,3,4-tetrahydroisoquinoline-7-sulfonamide]
16	CC(C)(C)c1onc(NS(=O)(=O)c2ccc3c(c2)CN(Cc2ccc(OCC(F)(F)F)nc2)CC3)c1F [Example 16, N-(5-(tert-butyl)-4-fluoroisoxazol-3-yl)-2-((6-(2,2,2-trifluoroethoxy)pyridin-3-yl)methyl)-1,2,3,4-tetrahydroisoquinoline-7-sulfonamide]
23	C[C@H](c1ccc(OCC(F)(F)F)nc1)N1CCc2ccc(S(=O)(=O)Nc3cc(C(C)(C)O)on3)cc2C1 [Example 18, (R)—N-(5-(2-hydroxypropan-2-yl)isoxazol-3-yl)-2-(1-(6-(2,2,2-trifluoroethoxy)pyridin-3-yl)ethyl)-1,2,3,4-tetrahydroisoquinoline-7-sulfonamide]
18	C[C@H](c1ccc(OCC(F)(F)F)nc1)N1CCc2ccc(S(=O)(=O)Nc3cc(C(C)(C)F)on3)cc2C1 [Example 19, (R)—N-(5-(2-fluoropropan-2-yl)isoxazol-3-yl)-2-(1-(6-(2,2,2-trifluoroethoxy)pyridin-3-yl)ethyl)-1,2,3,4-tetrahydroisoquinoline-7-sulfonamide]
5.8	Cc1c(NS(=O)(=O)c2ccc3c(c2)CN(Cc2cnc(SCC(F)(F)F)nc2)CC3)noc1C(C)(C)C [Example 20, N-(5-(tert-butyl)-4-methylisoxazol-3-yl)-2-((2-((2,2,2-trifluoroethyl)thio)pyrimidin-5-yl)methyl)-1,2,3,4-tetrahydroisoquinoline-7-sulfonamide]
3.9	C/C=C/c1c(NS(=O)(=O)c2ccc3c(c2)CN(Cc2cnc(OCC(F)(F)F)s2)CC3)noc1C(C)(C)C [Example 21, (E)-N-(5-(tert-butyl)-4-(prop-1-en-1-yl)isoxazol-3-yl)-2-((2-(2,2,2-trifluoroethoxy)thiazol-5-yl)methyl)-1,2,3,4-tetrahydroisoquinoline-7-sulfonamide]
41	Cc1c(NS(=O)(=O)c2ccc3c(c2)CN(C(=O)c2ccc(OCC(F)(F)F)nc2)CC3)noc1C(C)(C)C [Example 27, N-(5-(tert-butyl)-4-methylisoxazol-3-yl)-2-(6-(2,2,2-trifluoroethoxy)nicotinoyl)-1,2,3,4-tetrahydroisoquinoline-7-sulfonamide]
9.5	Cc1c(NS(=O)(=O)c2ccc3c(c2)CN([C@H](C)c2ccc(OCC(F)(F)F)cc2)CC3)noc1C(C)(C)C [Example 29, 7-(N-(5-(tert-butyl)-4-methylisoxazol-3-yl)sulfamoyl)-2-((R)-1-(4-(2,2,2-trifluoroethoxy)phenyl)ethyl)-1,2,3,4-tetrahydroisoquinolin-2-ium 2,2,2-trifluoroacetate]

— patent US10065945B2, “Isoquinoline derivatives as MGAT2 inhibitors” (Merck Sharp & Dohme Corp., priority 2014, dated 2018)
